Laboratory results published in patent US20230416248A1, “COMPOUNDS AND USES THEREOF” (Foghorn Therapeutics Inc., priority 2020, published 2023).
Read-outs that look alike come from different tables or passages of the source.

What was measured:
BRM = target: T1, BRM (Homo sapiens, UniProt P51531); assay: ATPase catalytic activity of BRM, ADP-Glo in vitro biochemical assay; conditions: for IC50: 30 nM BRM, 400 μM ATP; for Ratio* (BRG1 IC50 (μM) divided by BRM IC50 (μM)): selectivity ratio BRG1 IC50 / BRM IC50
T1 construct: made in house; host or cells: High Five insect cells
T1 sequence (P51531 whole entry): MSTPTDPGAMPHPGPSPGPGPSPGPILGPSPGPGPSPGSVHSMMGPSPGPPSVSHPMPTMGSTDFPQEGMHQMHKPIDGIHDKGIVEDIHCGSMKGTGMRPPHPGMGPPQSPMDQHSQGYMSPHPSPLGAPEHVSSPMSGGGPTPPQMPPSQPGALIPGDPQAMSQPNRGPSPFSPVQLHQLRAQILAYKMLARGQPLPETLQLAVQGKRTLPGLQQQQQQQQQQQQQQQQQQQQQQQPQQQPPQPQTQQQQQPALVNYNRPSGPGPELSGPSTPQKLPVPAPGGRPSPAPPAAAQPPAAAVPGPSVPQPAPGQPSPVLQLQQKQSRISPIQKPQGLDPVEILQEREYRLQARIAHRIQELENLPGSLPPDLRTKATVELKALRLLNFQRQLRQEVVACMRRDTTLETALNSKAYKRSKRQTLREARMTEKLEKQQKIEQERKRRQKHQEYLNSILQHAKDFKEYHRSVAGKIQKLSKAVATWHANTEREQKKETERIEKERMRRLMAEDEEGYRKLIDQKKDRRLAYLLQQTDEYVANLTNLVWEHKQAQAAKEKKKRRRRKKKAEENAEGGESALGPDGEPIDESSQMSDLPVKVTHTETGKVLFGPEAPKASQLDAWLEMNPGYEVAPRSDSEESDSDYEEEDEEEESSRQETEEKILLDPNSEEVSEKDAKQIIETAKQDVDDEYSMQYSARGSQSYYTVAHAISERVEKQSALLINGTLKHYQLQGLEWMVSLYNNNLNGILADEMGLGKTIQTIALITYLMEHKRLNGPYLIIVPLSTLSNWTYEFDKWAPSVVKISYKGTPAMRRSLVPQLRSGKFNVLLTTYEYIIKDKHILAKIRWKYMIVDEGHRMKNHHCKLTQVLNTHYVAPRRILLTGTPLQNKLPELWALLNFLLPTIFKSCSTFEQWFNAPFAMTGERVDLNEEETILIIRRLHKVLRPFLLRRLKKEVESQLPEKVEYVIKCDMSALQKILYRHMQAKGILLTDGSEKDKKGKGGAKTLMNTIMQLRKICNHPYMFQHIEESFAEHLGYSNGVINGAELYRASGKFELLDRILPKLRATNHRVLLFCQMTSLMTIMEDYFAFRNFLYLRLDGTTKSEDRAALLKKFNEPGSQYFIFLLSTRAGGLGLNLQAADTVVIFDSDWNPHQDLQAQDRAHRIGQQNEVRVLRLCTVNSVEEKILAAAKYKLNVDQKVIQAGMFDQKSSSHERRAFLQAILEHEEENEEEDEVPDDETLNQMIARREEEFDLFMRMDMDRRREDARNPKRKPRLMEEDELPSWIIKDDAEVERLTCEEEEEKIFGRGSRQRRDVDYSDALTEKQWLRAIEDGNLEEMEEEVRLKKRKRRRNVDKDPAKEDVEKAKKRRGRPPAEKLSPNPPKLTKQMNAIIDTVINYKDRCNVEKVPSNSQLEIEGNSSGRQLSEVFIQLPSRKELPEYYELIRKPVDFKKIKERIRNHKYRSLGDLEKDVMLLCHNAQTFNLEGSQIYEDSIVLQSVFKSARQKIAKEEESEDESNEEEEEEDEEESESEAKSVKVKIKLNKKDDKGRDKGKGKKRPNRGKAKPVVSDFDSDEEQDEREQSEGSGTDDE
Procedure: (§1) The ATPase catalytic activity of BRM or BRG-1 was measured by an in vitro biochemical assay using ADP-Glo™ (Promega, V9102). The ADP-Glo™ kinase assay is performed in two steps once the reaction is complete. The first step is to deplete any unconsumed ATP in the reaction. The second step is to convert the reaction product ADP to ATP, which will be utilized by the luciferase to generate luminesce and be detected by a luminescence reader, such as Envision.
The assay reaction mixture ([…]) contains 30 nM of BRM or BRG-1, 20 nM salmon sperm DNA (from Invitrogen, UfraPure™ Salmon Sperm DNA Solution, cat #15632011), and 400 μM of ATP in the ATPase assay buffer, which comprises of 20 mM Tris, pH 8, 20 mM MgCl2, 50 mM NaCl, 0.1% Tween-20, and 1 mM fresh DTT (Piercer™ DTT (Dithiothreitol), cat #20290). The reaction is initiated by the addition of the 2.5 μL ATPase solution to 2.5 μL ATP/DNA solution on low volume white Proxiplate-384 plus plate (PerkinElmer, cat #6008280) and incubates at room temperature for 1 hour. Then, following addition of 5 μL of ADP-Glo™ Reagent provided in the kit, the reaction incubates at room temperature for 40 minutes. Then, 10 μL of Kinase Detection Reagent provided in the kit is added to convert ADP to ATP, and the reaction incubates at room temperature for 60 minutes. Finally, luminescence measurement is collected with a plate-reading luminometer, such as Envision.

BRG-1 = target: T2, BRG-1 (Homo sapiens, UniProt P51532); assay: ATPase catalytic activity of BRG-1, ADP-Glo in vitro biochemical assay; conditions: 30 nM BRG-1, 400 μM ATP, read-out: BRG1 IC50
T2 construct: made in house; host or cells: High Five insect cells
T2 sequence (P51532 whole entry): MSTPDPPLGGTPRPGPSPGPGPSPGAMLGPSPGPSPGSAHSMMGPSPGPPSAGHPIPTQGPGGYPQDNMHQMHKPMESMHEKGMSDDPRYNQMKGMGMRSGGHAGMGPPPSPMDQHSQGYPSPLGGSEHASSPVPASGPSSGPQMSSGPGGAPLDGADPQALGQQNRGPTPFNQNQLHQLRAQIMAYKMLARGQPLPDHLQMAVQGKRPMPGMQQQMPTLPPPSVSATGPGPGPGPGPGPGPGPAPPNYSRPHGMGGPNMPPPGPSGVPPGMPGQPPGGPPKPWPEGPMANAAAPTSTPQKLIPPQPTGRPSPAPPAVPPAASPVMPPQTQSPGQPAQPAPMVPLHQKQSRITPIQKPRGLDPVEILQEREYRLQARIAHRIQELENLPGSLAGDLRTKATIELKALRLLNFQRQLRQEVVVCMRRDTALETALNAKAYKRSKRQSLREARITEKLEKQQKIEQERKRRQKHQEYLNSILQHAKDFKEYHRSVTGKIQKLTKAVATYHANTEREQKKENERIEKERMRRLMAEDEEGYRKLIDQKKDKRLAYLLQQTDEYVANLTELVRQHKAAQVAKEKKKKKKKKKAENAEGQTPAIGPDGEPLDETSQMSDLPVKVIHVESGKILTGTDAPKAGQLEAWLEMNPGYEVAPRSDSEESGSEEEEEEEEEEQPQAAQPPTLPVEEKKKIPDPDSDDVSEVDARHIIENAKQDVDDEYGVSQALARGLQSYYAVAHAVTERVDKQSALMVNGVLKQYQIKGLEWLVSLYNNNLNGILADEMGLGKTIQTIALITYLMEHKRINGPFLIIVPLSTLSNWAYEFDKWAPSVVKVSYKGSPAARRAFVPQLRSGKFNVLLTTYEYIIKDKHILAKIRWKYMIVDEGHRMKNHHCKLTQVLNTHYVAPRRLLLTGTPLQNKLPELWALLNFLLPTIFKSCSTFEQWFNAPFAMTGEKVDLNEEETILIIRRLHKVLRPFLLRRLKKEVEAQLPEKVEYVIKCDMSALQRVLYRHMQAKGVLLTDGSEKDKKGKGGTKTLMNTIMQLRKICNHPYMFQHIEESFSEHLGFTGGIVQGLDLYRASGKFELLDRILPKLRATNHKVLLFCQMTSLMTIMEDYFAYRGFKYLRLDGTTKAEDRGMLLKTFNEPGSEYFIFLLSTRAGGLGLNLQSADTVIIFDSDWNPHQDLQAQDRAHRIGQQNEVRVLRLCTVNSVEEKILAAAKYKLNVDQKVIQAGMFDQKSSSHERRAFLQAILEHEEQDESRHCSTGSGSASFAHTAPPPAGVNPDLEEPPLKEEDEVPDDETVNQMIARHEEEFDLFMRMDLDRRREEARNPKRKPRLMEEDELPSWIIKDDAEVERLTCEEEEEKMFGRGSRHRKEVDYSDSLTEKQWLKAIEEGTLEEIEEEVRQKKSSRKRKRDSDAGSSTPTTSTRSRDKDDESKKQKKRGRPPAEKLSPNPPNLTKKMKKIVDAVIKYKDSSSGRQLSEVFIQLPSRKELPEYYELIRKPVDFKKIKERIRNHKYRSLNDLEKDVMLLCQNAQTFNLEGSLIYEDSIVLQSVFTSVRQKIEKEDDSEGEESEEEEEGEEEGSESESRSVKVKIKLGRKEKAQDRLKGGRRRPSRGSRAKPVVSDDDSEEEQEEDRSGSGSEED
Procedure: as §1
Then, following addition of 5 μL of ADP-Glo™ Reagent provided in the kit, the reaction incubates at room temperature for 40 minutes. Then, 10 μL of Kinase Detection Reagent provided in the kit is added to convert ADP to ATP, and the reaction incubates at room temperature for 60 minutes. Finally, luminescence measurement is collected with a plate-reading luminometer, such as Envision.

[1] = ATPase catalytic activity, ADP-Glo

Row | IC50 (BRM; [1]) | Ratio* (BRM; ratio of BRG1 IC50 to BRM IC50) | IC50 (BRG-1; [1]) | IC50 (BRM; ADP-Glo ATPase assay) | Ratio* (BRG1 IC50 (μM) divided by BRM IC50 (μM)) (BRM) | IC50 (BRG-1; ADP-Glo ATPase assay) | Ratio* (BRM; ratio BRG1 IC50 / BRM IC50) | Structure (SMILES)
1 | 5.5 nM | 14.77 | 81.9 nM |  |  |  |  | COCCOc1ccc2c(c1)N(c1ccc3cnc(CNC(=O)c4ccc5c(c4)S(=O)(=O)CCOC5)cc3n1)CCC2 [Compound 586]
2 |  |  |  | 13.1 nM | 20.03 | 262 nM |  | C[C@@H]1CN(c2cccc(-c3ccc4cnc(CNC(=O)c5ccc(C(F)F)c(S(C)(=O)=O)c5)cc4n3)n2)C[C@@H](C)O1 [Compound 158]
3 |  |  |  | 31.9 nM |  | 246 nM | 7.70 | COc1ncc(F)c2c1CCCN2c1ccc2cnc(CNC(=O)c3ccc4c(c3)S(=O)(=O)CCOC4)cc2n1 [Compound 825]
4 |  |  |  | 689 nM | 7.14 | 4920 nM |  | O=C(NCc1cc2nc(N3CCc4cnccc4C3)ccc2cn1)c1ccc2c(c1)S(=O)(=O)CCOC2 [Compound 87]
5 |  |  |  | 11.9 nM |  | 664 nM | 55.91 | O=C(NCc1cc2nc(N3CCOc4ccc([C@H](F)CF)nc43)ccc2cn1)c1ccc2c(c1)S(=O)(=O)CCOC2 [Compound 856]
6 | 7.9 nM | 4.24 | 33.6 nM |  |  |  |  | C[C@@H]1CN(c2cccc(-c3ccc4cnc(CNC(=O)c5cnc6c(c5)S(=O)(=O)CCC5CC65)cc4n3)n2)C[C@H](C)O1 (mixture of isomers) [Compound 528]
7 | 39 nM | 13.24 | 517 nM |  |  |  |  | C[C@@H]1CN(c2cccc(-c3ccc4cnc(CNC(=O)c5ccc6c(c5)S(=O)(=O)[C@@H](C)CN6C5CC5)cc4n3)n2)C[C@H](C)O1 [Compound 667]
8 |  |  |  | 37.8 nM | 14.29 | 541 nM |  | CS(=O)(=O)c1cc(C(=O)NCc2cc3nc(-c4cccc(N5CC[C@H]6OCC[C@@H]6C5)n4)ccc3cn2)ccc1C(F)F [Compound 124]
9 | 8.7 nM | 7.36 | 63.9 nM |  |  |  |  | C[C@@H]1CN(c2cccc(-c3ccc4cnc(CNC(=O)c5cc(C(F)F)c6c(c5)S(=O)(=O)CCOC6)cc4n3)n2)C[C@H](C)O1 [Compound 355]
10 |  |  |  | 77.5 nM | 13.85 | 1070 nM |  | CS(=O)(=O)c1cc(C(=O)NCc2cc3nc(-c4cccc(N5CC[C@@H]6COC[C@@H]6C5)n4)ccc3cn2)ccc1Cl [Compound 77]
11 |  |  |  | 61.2 nM | 15.77 | 965 nM |  | O=C(NCc1cc2nc(-c3ccnc([C@H]4CC4(F)F)n3)ccc2cn1)c1ccc2c(c1)S(=O)(=O)CCOC2 [Compound 217]
12 |  |  |  | 221 nM | 9.90 | 2190 nM |  | Cc1ncc(C(=O)NCc2cc3nc(-c4cncc(C5CC5)n4)ccc3cn2)cc1S(C)(=O)=O [Compound 298]
13 |  |  |  | 3.6 nM | 15.77 | 57.1 nM |  | COCCN(C)c1cccc(-c2ccc3cnc(CNC(=O)c4ccc5c(c4)S(=O)(=O)CCOC5)cc3n2)n1 [Compound 145]
14 |  |  |  | 74.5 nM | 6.12 | 457 nM |  | O=C(NCc1cc2nc(N3CCc4cccnc43)ccc2cn1)c1ccc2c(c1)S(=O)(=O)CCOC2 [Compound 47]
15 | 7.6 nM | 2.68 | 20.3 nM |  |  |  |  | COC1CCS(=O)(=O)c2cc(C(=O)NCc3cc4nc(-c5cccc(N6C[C@@H](C)O[C@@H](C)C6)n5)ccc4cn3)ccc2C1 (stereo partly drawn) [Compound 344]
16 |  |  |  | 22.7 nM | 20.63 | 468 nM |  | O=C(NCc1cc2nc(-c3cccc(OC(F)(F)F)n3)ccc2cn1)c1ccc2c(c1)S(=O)(=O)CCOC2 [Compound 237]
17 | 6.4 nM | 4.21 | 26.9 nM |  |  |  |  | C[C@@H]1CN(c2cccc(-c3ccc4cnc(CNC(=O)c5cnc6c(c5)S(=O)(=O)[C@@H](C)CCC6)cc4n3)n2)C[C@H](C)O1 [Compound 509]
18 | 19 nM | 12.21 | 231 nM |  |  |  |  | CC1Cc2ccc(C(=O)NCc3cc4nc(-c5cccc(N6C[C@@H](C)O[C@@H](C)C6)n5)ccc4cn3)cc2S1(=O)=O (stereo partly drawn) [Compound 364]
19 |  |  |  | 15.1 nM |  | 176 nM | 11.62 | O=C(NCc1cc2nc(N3CCN(C4CC4)c4cc(C5CC5)cnc43)ccc2cn1)c1ccc2c(c1)S(=O)(=O)CCOC2 [Compound 756]

Row | IC50 (BRM; [1]) | Ratio* (BRM; ratio of BRG1 IC50 to BRM IC50) | IC50 (BRG-1; [1]) | IC50 (BRM; ADP-Glo ATPase assay) | Ratio* (BRG1 IC50 (μM) divided by BRM IC50 (μM)) (BRM) | IC50 (BRG-1; ADP-Glo ATPase assay) | Ratio* (BRM; ratio BRG1 IC50 / BRM IC50) | Structure (SMILES)
20 |  |  |  | 3 nM | 3.33 | 9.9 nM |  | Cc1cc(-c2cccc(-c3ccc4cnc(CNC(=O)c5ccc6c(c5)S(=O)(=O)CCOC6)cc4n3)n2)cc(C)n1 [Compound 169]
21 |  |  |  | 406 nM |  | 4570 nM | 11.26 | O=C(NCc1cc2nc(N3CCOc4nc(C(F)F)ccc43)ccc2cn1)c1ccc2c(c1)S(=O)(=O)CCOC2 [Compound 846]
22 | 10.9 nM | 13.46 | 147 nM |  |  |  |  | O=C(NCc1cc2nc(N3CCCc4cc(C(F)F)cnc43)ccc2cn1)c1ccc2c(c1)S(=O)(=O)CCOC2 [Compound 473]
23 |  |  |  | 855 nM | 4.98 | 4250 nM |  | CS(=O)(=O)c1cncc(C(=O)NCc2cc3nc(-c4cncc(C5CC5)n4)ccc3cn2)c1 [Compound 306]
24 | 10.9 nM | 10.78 | 117 nM |  |  |  |  | CCN(c1cccc(-c2ccc3cnc(CNC(=O)c4ccc5c(c4)S(=O)(=O)CCOC5)cc3n2)n1)[C@@H](C)COC [Compound 372]
25 | 13.7 nM | 38.63 | 528 nM |  |  |  |  | C[C@@H]1CN(c2cccc(-c3ccc4cnc(CNC(=O)c5cc(Cl)c6c(c5)S(=O)(=O)CCOC6)cc4n3)n2)C[C@H](C)O1 [Compound 389]
26 |  |  |  | 10.3 nM | 6.56 | 67.7 nM |  | C[C@@H]1CN(c2cccc(-c3ccc4cnc([C@H](C)NC(=O)c5ccc6c(c5)S(=O)(=O)CCOC6)cc4n3)n2)C[C@H](C)O1 [Compound 122]
27 |  |  |  | 86.7 nM | 5.73 | 497 nM |  | C[C@@H]1CN(c2cccc(-c3ccc4cnc([C@@H](C)NC(=O)c5ccc6c(c5)S(=O)(=O)CCOC6)cc4n3)n2)C[C@H](C)O1 [Compound 121]
28 | 168 nM | 15.08 | 2530 nM |  |  |  |  | CCO[C@@H](C)c1ccc2c(n1)N(c1ccc3cnc(CNC(=O)c4ccc5c(c4)S(=O)(=O)CCOC5)cc3n1)CCC2 [Compound 635]
29 |  |  |  | 3 nM | 4.54 | 13.6 nM |  | C[C@@H]1CN(c2cccc(-c3ccc4nnc(CNC(=O)c5ccc6c(c5)S(=O)(=O)CCOC6)cc4c3)n2)C[C@H](C)O1 [Compound 160]
30 |  |  |  | 169 nM |  | 636 nM | 3.77 | O=C(NCc1ncc2ccc(N3CCOc4cc(C5CC5)cnc43)cc2n1)c1ccc2c(c1)S(=O)(=O)CCOC2 [Compound 800]
31 |  |  |  | 12.5 nM |  | 152 nM | 12.13 | O=C(NCc1cc2nc(N3CCOc4cc(C5CC5)ccc43)ccc2nn1)c1ccc2c(c1)S(=O)(=O)CCOC2 [Compound 775]
32 |  |  |  | 58.5 nM | 7.00 | 410 nM |  | O=C(NCc1cc2nc(-c3ccccc3OC3CC3)ccc2cn1)c1ccc2c(c1)S(=O)(=O)CCOC2 [Compound 232]
33 |  |  |  | 366 nM | 5.25 | 1920 nM |  | O=C(NCc1cc2nc(N3CCCc4ncccc43)ccc2cn1)c1ccc2c(c1)S(=O)(=O)CCOC2 [Compound 156]
34 | 43.9 nM | 6.86 | 301 nM |  |  |  |  | C[C@@H]1Cc2ccc(-c3ccc4cnc(CNC(=O)c5ccc6c(c5)S(=O)(=O)CCOC6)cc4n3)nc2N(C)C1 [Compound 661]
35 |  |  |  | 154 nM | 7.32 | 1130 nM |  | Cn1nccc1-c1cccc(-c2ccc3cnc(CNC(=O)c4ccc5c(c4)S(=O)(=O)CCOC5)cc3n2)c1 [Compound 235]
36 |  |  |  | 24.6 nM |  | 212 nM | 8.62 | Cc1c(C2CC2)cnc2c1OCCN2c1ccc2cnc(CNC(=O)c3ccc4c(c3)S(=O)(=O)CCOC4)cc2n1 [Compound 784]
37 |  |  |  | 15.8 nM | 14.02 | 222 nM |  | C[C@@H]1CN(c2cccc(-c3ccc4cnc(CNC(=O)c5ccc(Cl)c(S(C)(=O)=O)c5)cc4n3)n2)C[C@@H](C)O1 [Compound 177]
38 |  |  |  | 61.5 nM | 7.91 | 487 nM |  | O=C(NCc1cc2nc(-c3cccc(C4CCOCC4)n3)ccc2cn1)c1ccc2c(c1)S(=O)(=O)CCOC2 [Compound 133]
